Measured values published in patent US20100112030A1, “ROLE OF HEDGEHOG SIGNALING IN ATHEROSCLEROSIS AND CARDIOVASCULAR DISEASE” (The Regents of the University of California, priority 2007, published 2010).

Key:
Type in all cases: cell-based
[1] = tested on: Ptch and Gli1 expression in human aortic smooth muscle cells (HASMC); test: Hh target gene (Ptch, Gli1) mRNA expression in HASMC by Q-RT-PCR; settings: 48 hours of treatment
Procedure: (§1) Treatment of HASMC with Shh was examined to determine if Shh induces the expression of target genes, Ptch and Gli. […] This difference may be cell-type specific or may be due to heterogeneity in vascular smooth muscle cell populations and their differentiation state. Ptch and Gli1 mRNA expression was induced when using 3 μg/ml of rmShh after 48 hours of treatment (1.6 fold and 1.8 fold, respectively, compared to control vehicle-treated cells as assessed by Q-RT-PCR analysis). This is consistent with studies in which 3.5 μg/ml of Shh was used to activate rat vascular SMC. It is likely that local Shh concentrations may reach very high levels in the microenvironment of the vessel wall, since, as described herein, substantial immunostaining for Shh in atherosclerotic lesions was observed. Cells within the atherosclerotic lesion may also become more susceptible to Shh over time due to the inflammatory insults associated with that environment. […] Dose response and time course experiments can determine the extent and kinetics of Hh target gene expression in aortic SMC, as well as in other vascular cells, using techniques known to a person of ordinary skill.

[2] = tested on: Gli1 expression in mouse aortic smooth muscle cells (MASMC); test: Hh target gene (Gli1) expression in MASMC; settings: 48 hours of treatment
Procedure: as §1

[3] = tested on: pluripotent mesenchymal cells derived from the bone marrow; test: Oxysterol-induced osteoblastic differentiation of pluripotent mesenchymal cells; settings: hedgehog pathway inhibitor added to oxysterol-treated cells
Source text: These mesenchymal cells, which serve as osteoprogenitors during skeletal development and bone remodeling, are induced to undergo osteoblastic differentiation when treated with osteoinductive oxysterols.

For `CC(C)CCC[C@](C)(O)[C@H]1CC[C@H]2[C@@H]3CC=C4C[C@@H](O)CC[C@]4(C)[C@H]3CC[C@@]21C` [20(S)-hydroxycholesterol], which “increase in Gli1 expression” value [1] is on record?
Its value is 2 fold.

And the “increase in Gli1 expression” value [2]?
The value was 2 fold.

`CC1=C2C[C@H]3[C@@H](CC=C4C[C@@H](O)CC[C@@]43C)[C@@H]2CC[C@]12O[C@@H]1C[C@H](C)CN[C@H]1[C@H]2C` [cyclopamine] was tested. Which “oxysterol-induced osteoblastic differentiation of cells” value [3] did it give?
The value was “completely inhibited”.
